The source of these data is patent US20190142800A1, “SYNERGISTIC ANTIFUNGAL COMPOSITIONS AND METHODS THEREOF” (VYOME THERAPEUTICS LIMITED, priority 2016, published 2019).

Assay [1] relates to terbinafine resistant Trichophyton interdigitale (GTB-2S). As to the kind of experiment: Checkerboard assay on terbinafine resistant Trichophyton interdigitale (GTB-2S). Format: cell-based. The note with it: for MIC: Trichophyton interdigitale. As for the experimental part: (§1) The synergy is measured by determining the fractional inhibitory concentration (FIC) value of the combination. This experimental set up, called checkerboard method, allows measurement of a desired effect (inhibition of fungal growth in this case) at different combinations of various concentrations of the two agents (antifungal agent and fatty acid/ester). […] No agent is added to the penultimate column on the right and the bottom row. The final column on the right is used for growth control (only inoculum in broth) and sterility control (broth alone, no inoculum). […] FIC values for both agents in a particular well were calculated in this way followed by determination of the FIC index (sum of the FICs of each drug in the concerned well). […] Agents Chemother.
(§2) Using the checkerboard layout experimental setup described above (FIG. 1A), various medium-chain fatty acids were tested for their ability to potentiate the activity of a known antifungal agent. Concentrations above and below the MIC of each test agent were tested using serial dilution. The same procedure was expanded to test combinations of various medium-chain fatty acids C-1 to C-14 (such caprylic acid, undecylenic acid and lauric acid) and esters thereof, with antifungal agents from various classes including azoles, allylamines, benzylamines, zinc pyrithione and piroctone olamine against both susceptible and resistant Trichophyton spp. (filamentous fungus) and Candida spp. (yeast).
(§3) Potentiation of the activity of antimycotic agents using ester derivatives of medium chain fatty acids was tested in a standard, well accepted in vitro assay system to check for synergy. This experimental set up, called checkerboard method, allows measurement of a desired effect (inhibition of fungal growth in this case) at different combinations of various concentrations of two agents. A chosen medium chain fatty acid (C-1 to C-14) or its ester derivative was tested for its ability to potentiate the activity of a known antifungal agent (various classes) using the checkerboard layout. Various concentrations above and below the MIC of each test agent were tested using serial dilution in Sabouraud dextrose broth. […] FIC values for both test agents in a particular well are calculated in this way followed by determination of the FIC index (sum of the FICs of each drug in the concerned well).

Assay [2] relates to Trichophyton rubrum (ATCC-28188). The assay is described as follows: Checkerboard assay of fatty acid/ester with antifungals on Trichophyton rubrum (ATCC 28188). Format: cell-based. Details: key to FIC index: FIC index = sum of FICs; FIC = agent conc in well / agent MIC. The note with it: for MIC: Trichophyton rubrum, ATCC28188, agent alone.
For assay [3], the system named is azole resistant C. albicans MTCC 227. The assay is described as follows: Checkerboard assay on azole resistant C. albicans MTCC 227. It is filed as cell-based, Candida albicans. The note with it: for MIC: Candida albicans, MTCC227, agent alone. As for the experimental part: as §1, §2, §3
The mark [4] stands for this setting: agent's MIC in combination terbinafine or butenafine + caprylic acid.
The mark [5] stands for this setting: agent's MIC in combination terbinafine or butenafine + glyceryl monocaprylate.
Where [6] appears, read: combination terbinafine or butenafine + caprylic acid.
[7] abbreviates: combination terbinafine or butenafine + glyceryl monocaprylate.
Setting [8] is: in combination with caprylic acid.
[9] abbreviates: in combination with glyceryl monocaprylate.
The mark [10] stands for this setting: in combination with propylene glycol monocaprylate.
Where [11] appears, read: agent's MIC in combination antifungal + caprylic acid (partner: other agent of same combination no.).
[12] abbreviates: agent's MIC in combination antifungal + glyceryl monocaprylate (partner: other agent of same combination no.).
The mark [13] stands for this setting: agent's MIC in combination antifungal + propylene glycol monocaprylate (partner: other agent of same combination no.).
The mark [14] stands for this setting: antifungal in combination with caprylic acid.
Where [15] appears, read: antifungal in combination with glyceryl monocaprylate.
[16] abbreviates: antifungal in combination with propylene glycol monocaprylate.
The mark [17] stands for this setting: combination antifungal + caprylic acid.
Setting [18] is: combination antifungal + glyceryl monocaprylate.
[19] abbreviates: combination antifungal + propylene glycol monocaprylate.
Setting [20] is: Table 12, undecylenic acid (C11) series.
Where [21] appears, read: Table 13, lauric acid (C12) series.
Setting [22] is: antifungal in combination with lauric acid.
[23] abbreviates: antifungal in combination with propylene glycol monolaurate.
The mark [24] stands for this setting: antifungal in combination with undecylenic acid.

Take `CN(Cc1ccc(C(C)(C)C)cc1)Cc1cccc2ccccc12` [Butenafine]: in assay [1] (agent alone, Table 7), the MIC was 7.5 µg/mL. Also, the “Combination MIC” value in assay [1] (setting [4]) is 0.468 µg/mL; in assay [1] (setting [5]), 0.234 µg/mL; in assay [1] (agent's MIC in combination terbinafine or butenafine + propylene glycol monocaprylate), 0.117 µg/mL. Besides, the FIC in assay [1] (setting [6]) is given as 0.0625; in assay [1] (setting [7]), 0.0312; in assay [1] (combination terbinafine or butenafine + propylene glycol monocaprylate), 0.016. The FIC index in assay [1] (setting [8]) amounted to 0.562; in assay [1] (setting [9]) it was 0.531; in assay [1] (setting [10]) it was 0.516. Also, the Interaction result in assay [1] (setting [8]), in assay [1] (setting [9]) and in assay [1] (setting [10]) was “Synergistic (Combinations that gave FIC indices less than 1 were designated “synergistic”)” throughout.

Take `CC(=O)N1CCN(c2ccc(OCC3COC(Cn4ccnc4)(c4ccc(Cl)cc4Cl)O3)cc2)CC1` (centres unmarked) [Ketoconazole]: the MIC in assay [2] (Table 1, caprylic acid series) worked out at 0.312 µg/mL; in assay [2] (Table 2, propylene glycol monocaprylate series), 0.3 µg/mL; in assay [2] (Table 3, glyceryl monocaprylate series), 0.321 µg/mL; in assay [3] (Table 9, caprylic acid (C8) series), 64 µg/mL; in assay [3] (Table 10, propylene glycol monocaprylate series), 128 µg/mL; in assay [3] (Table 11, glyceryl monocaprylate series), 128 µg/mL. Further, the MIC in assay [3] (setting [20]) was found to be 128 µg/mL; in assay [3] (setting [21]), 64 µg/mL; in assay [3] (Table 14, propylene glycol monolaurate series) it was 128 µg/mL. Further, the “Combination MIC” value amounted to 0.0781 µg/mL in assay [2] (setting [11]); 0.009 µg/mL in assay [2] (setting [12]); 0.0375 µg/mL in assay [2] (setting [13]); 0.25 µg/mL in assay [3] (setting [11]); 2 µg/mL in assay [3] (setting [12]); 0.25 µg/mL in assay [3] (agent's MIC in combination antifungal + lauric acid (partner: other agent of same combination no.)). Further, the “Combination MIC” value in assay [3] (setting [13]) worked out at 8 µg/mL; in assay [3] (agent's MIC in combination antifungal + propylene glycol monolaurate (partner: other agent of same combination no.)), 32 µg/mL; in assay [3] (agent's MIC in combination antifungal + undecylenic acid (partner: other agent of same combination no.)), 1 µg/mL. Moreover, the FIC index turned out to be 0.5 in assay [2] (setting [14]); 0.531 in assay [2] (setting [15]); 0.625 in assay [2] (setting [16]); 0.253 in assay [3] (setting [14]); 0.265 in assay [3] (setting [15]); 0.127 in assay [3] (setting [22]). The FIC index in assay [3] (setting [16]) is listed as 0.187; in assay [3] (setting [23]), 0.281; in assay [3] (setting [24]), 0.132. Moreover, the Interaction entry in assay [2] (setting [14]), in assay [2] (setting [15]), in assay [2] (setting [16]), in assay [3] (setting [14]), in assay [3] (setting [15]) and in assay [3] (setting [22]) was “Synergistic (Combinations that gave FIC indices less than 1 were designated “synergistic”)” throughout. Also, the Interaction entry in assay [3] (setting [16]), in assay [3] (setting [23]) and in assay [3] (setting [24]) was “Synergistic (Combinations that gave FIC indices less than 1 were designated “synergistic”)” each time. Further, the FIC stood at 0.25 in assay [2] (setting [17]); 0.031 in assay [2] (setting [18]); 0.125 in assay [2] (setting [19]); 0.003 in assay [3] (setting [17]); 0.0156 in assay [3] (setting [18]); 0.003 in assay [3] (combination antifungal + lauric acid). In addition, the FIC amounted to 0.0625 in assay [3] (setting [19]), 0.25 in assay [3] (combination antifungal + propylene glycol monolaurate) and 0.0078 in assay [3] (combination antifungal + undecylenic acid).

As to `CCCCCCCCCCCC(=O)O` [Lauric acid], the MIC in assay [2] (Table 5, lauric acid (C12) series) was found to be 15.6 µg/mL; in assay [3] (setting [21]), 3120 µg/mL.

Regarding `CN(C/C=C/C#CC(C)(C)C)Cc1cccc2ccccc12` [Terbinafine], the MIC in assay [1] (agent alone, Table 7) was 30 µg/mL. In assay [1] (agent alone, Table 7), the “Agent MIC” value came to 15 µg/mL. The “Combination MIC” value in assay [1] (setting [4]) was determined as 0.117 µg/mL; in assay [1] (setting [5]), 0.468 µg/mL. Further, the results for the FIC in assay [1] (setting [6]) and in assay [1] (setting [7]) were 0.0078 and 0.0312, respectively. Moreover, the FIC index in assay [1] (setting [8]) is on record as 0.5007; in assay [1] (setting [9]) it was 0.531. The Interaction result in assay [1] (setting [8]), in assay [1] (setting [9]) and in assay [1] (setting [10]) was “Synergistic (Combinations that gave FIC indices less than 1 were designated “synergistic”)” throughout.

For `C=CCCCCCCCCC(=O)O` [Undecylenic acid], the minimal inhibitory concentration (MIC) was determined as 31.3 µg/mL in assay [2] (Table 4, undecylenic acid (C11) series) and 500 µg/mL in assay [3] (setting [20]). In addition, the “Agent MIC” value in assay [2] (agent alone, Table 4, undecylenic acid (C11) series) is 62.5 µg/mL.
